Measured values from patent US10583137B2, “Triazole DAGLα inhibitors” (THE SCRIPPS RESEARCH INSTITUTE, priority 2015, dated 2020).
pIC50: −log10 of the molar value. Like-named read-outs stand apart in the source and are kept apart here.

Key:
[1] = test system: brain 2-AG and other DAGL-regulated lipids; assay: brain lipid profiles of treated mice by LC-MS; type: in vivo, mouse; settings: for brain 2-AG levels / brain AA / brain AEA / brain C18:1/C20:4 DAG / brain PGD2 / brain PGE2 / brain SAG: 50 mg/kg i.p., 4 hr post-dosing
Experimental: Brain lipid profiles of mice treated with compounds 14, 17 and control compound 22.
Mice were treated with 50 mg/kg compound (i.p.), followed by lipid profiling using LC-MS at a 4 hr post-dosing. […] This depletion of brain 2-AG in compound 14 and 17-treated mice was dose-dependent (data not shown) and was observed within 2 h after injection. […] The changes in each lipid species were dose-dependent and were absent in compound 22 treated mice (FIGS. 6C, E, G, I, and K).

ABHD6 = ABHD6 (Mus musculus (Mouse), UniProt Q8R2Y0); assay: in vivo ABPP coupled to quantitative mass spectrometry (FP-biotin, ReDiMe); settings: brain proteomes of treated mice
Experimental: (§1) The extent of these target profiles were confirmed by performing ABPP coupled to high-resolution, quantitative mass spectrometry (MS). Briefly, brain proteomes from compound and vehicle-treated mice were incubated with the serine hydrolase directed activity-based probe FP-biotin, and probe-labeled enzymes were enriched by streptavidin chromatography, digested on bead with trypsin, and the resulting tryptic peptides modified by reductive dimethylation (ReDiMe) of lysine residues using isotopically heavy and light formaldehyde, respectively. In these experiments, inhibited serine hydrolases are identified as enzymes showing low heavy/light ReDiMe ratios.

DAGLβ [2] = target: T1, DAGLβ (Mus musculus (Mouse), UniProt Q91WC9); assay: as above; settings: brain proteomes of treated mice
Experimental: as §1

CES1C = CES1C (Mus musculus (Mouse), UniProt P23953); assay: as above; settings: brain proteomes of treated mice
Experimental: as §1

LIPE = LIPE (Mus musculus (Mouse), UniProt P54310); assay: as above; settings: brain proteomes of treated mice
Experimental: as §1

BCHE = BCHE (Mus musculus (Mouse), UniProt Q03311); assay: as above; settings: brain proteomes of treated mice
Experimental: as §1

DAGLα [3] = target: T2, DAGLα (Mus musculus (Mouse), UniProt Q6WQJ1); assay: as above; settings: brain proteomes of treated mice
Experimental: as §1

DAGL enzymes = assay: brain proteomes of treated mice conjugated to Cy5 fluorophore by CuAAC; type: in vivo, mouse
[4] = test system: DSE at parallel fiber to Purkinje cell synapses; assay: depolarization-induced suppression of excitation (DSE) in acute cerebellar slices; settings: purkinje; bath application to cerebellar slices 30 min before recordings; read-out: half-maximal inhibition of DSE
From the text: Various forms of synaptic plasticity are regulated by 2-AG signaling, included depolarization-induced suppression of excitation (DSE) and inhibition (DSI). DSE was examined at parallel fiber (PF) to Purkinje cell (PC) synapses in acute cerebellar slices. A brief depolarization of PCs induced robust transient DSE at PF-PC synapses in vehicle treated cerebellar slices (FIG. 7A).

DAGLβ [5] = target: T1, DAGLβ; assay: gel-based ABPP of mouse brain proteome, endogenous DAGLs, probe compound 58 and HT-01; type: biochemical
Experimental: (§2) Compounds 14 and 17 were evaluated for activity and selectivity against endogenous DAGLs and other serine hydrolases in the mouse brain proteome using a ABPP of mouse brain proteome assay as described in Example 16. These experiments were performed using three different activity-based probesprobe compound 58 (targets DAGLα and DAGLβ), HT-01 (targets DAGLα and DAGLβ), and FP-Rh (broad-spectrum serine hydrolase-directed probe fluorophosphonate-rhodamine).
(§3) Data represent average values±SEM; n=3 per group. […] Compounds 14 and 17 had minimal and negligible binding, respectively, to cannabinoid CB1 (CB1R) and CB2 (CB2R) receptors as measured with a radioligand binding assay (IC50 values>1 μM) (data not shown).

DAGLα [6] = target: T2, DAGLα; assay: as above; type: biochemical
Experimental: as §2, §3

[7] = test system: DSI at CA1 pyramidal neuron synapses; assay: depolarization-induced suppression of inhibition (DSI) in hippocampal slices; settings: bath application 30 min
Experimental: DSI was evaluated at CA1 pyramidal neuron synapses in hippocampal slices. DSI was induced in vehicle-treated hippocampal slices by applying a brief depolarization while evoking […] through stimulation of synaptic inhibitory inputs (FIG. 7C). Bath application of compound 14 (10 μM) and compound 17 (1 μM), but not compound 22 (10 μM), for 30 min before starting electrophysiological recordings blocked hippocampal DSI (FIGS. 7C and D).

serine hydrolases = assay: ABPP selectivity against serine hydrolases in mouse brain proteome; type: biochemical
Experimental: as §2, §3
The selectivity of compounds 14 and 17 for additional serine hydrolases was assessed using probe FP-Rh (0.5 μM, 20 min; data not shown). Representative mouse brain serine hydrolases detected by FP-Rh were FAAH, MAGL, and ABHD6.

[8] = test system: LPS-induced neuroinflammatory responses (brain lipids, cytokines, body temperature); assay: LPS-induced neuroinflammatory responses in mouse brain; type: in vivo; settings: mice; for LPS-induced elevation in brain 2-AG / LPS-induced elevation in brain PGE2 / LPS-stimulated brain cytokines: 50 mg/kg i.p. 60-90 min before LPS 20 mg/kg i.p., 6 hr; for LPS-induced anapyrexia: 50 mg/kg i.p. before LPS; for brain 2-AG under basal control conditions / brain AA under basal control conditions / brain PGE2 under basal control conditions: 50 mg/kg i.p., no LPS
Experimental: The effects of pharmacological and genetic inactivation of DAGL activity on neuroinflammatory responses (brain prostaglandin and cytokine production) induced by high-dose lipopolysaccharide treatment was examined.
Mice were treated with compounds 14, 17, control compound 22 or vehicle (50 mg/kg, i.p) for 60-90 min, followed by LPS (20 mg/kg, i.p., 6 hr) or vehicle. The mice were subsequently sacrificed and their brain lipid and cytokine profiles analyzed. […] The LPS-induced elevations in both 2-AG and PGE2 were suppressed in compound 14 and compound 17 treated mice and DAGLα/mice, but not compound 22 treated mice. […] LPS-induced anapyrexia was blunted in compound 14 and 17 treated mice (FIG. 8E) and DAGLα−/− mice (FIG. 8F), but not compound 22 treated mice (FIG. 8E).

PLA2G7 = PLA2G7 (Mus musculus (Mouse), UniProt Q60963); assay: in vivo ABPP coupled to quantitative mass spectrometry (FP-biotin, ReDiMe); settings: brain proteomes of treated mice
Experimental: as §1

ABHD2 = ABHD2 (Mus musculus (Mouse), UniProt Q9QXM0); assay: as above; settings: brain proteomes of treated mice
Experimental: as §1

PAFAH2 = PAFAH2 (Mus musculus (Mouse), UniProt Q8VDG7); assay: as above; settings: brain proteomes of treated mice
Experimental: as §1

DAGLβ [9] = target: T1, DAGLβ; assay: time-course of DAGL inhibition and recovery in mice, competitive ABPP with compound 58 probe; type: in vivo; settings: 3 mg/kg
Experimental: Inhibition of DAGL in mice with DAGL compounds 14 and 17 was investigated as a function of time as determined by competitive ABPP using the compound 58 probe (1 μM, 30 min).

T1 sequence (Q91WC9 whole entry): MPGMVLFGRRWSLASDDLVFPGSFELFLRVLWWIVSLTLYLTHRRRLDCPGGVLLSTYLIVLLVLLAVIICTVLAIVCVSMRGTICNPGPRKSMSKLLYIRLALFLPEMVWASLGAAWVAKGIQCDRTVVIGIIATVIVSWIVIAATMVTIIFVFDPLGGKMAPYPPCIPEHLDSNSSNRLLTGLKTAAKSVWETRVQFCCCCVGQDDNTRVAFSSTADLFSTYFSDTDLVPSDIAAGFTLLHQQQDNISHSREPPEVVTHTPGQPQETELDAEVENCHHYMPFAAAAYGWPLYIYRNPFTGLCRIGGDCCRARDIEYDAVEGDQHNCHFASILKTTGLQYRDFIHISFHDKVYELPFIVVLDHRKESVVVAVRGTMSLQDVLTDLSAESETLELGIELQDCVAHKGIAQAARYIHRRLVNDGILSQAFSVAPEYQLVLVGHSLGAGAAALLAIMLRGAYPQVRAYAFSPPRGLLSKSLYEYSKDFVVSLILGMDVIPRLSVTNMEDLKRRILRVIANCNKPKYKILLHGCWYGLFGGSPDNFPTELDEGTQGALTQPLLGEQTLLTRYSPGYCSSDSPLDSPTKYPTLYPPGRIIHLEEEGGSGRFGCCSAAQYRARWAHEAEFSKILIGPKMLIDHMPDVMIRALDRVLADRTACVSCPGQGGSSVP
T2 sequence (Q6WQJ1 whole entry): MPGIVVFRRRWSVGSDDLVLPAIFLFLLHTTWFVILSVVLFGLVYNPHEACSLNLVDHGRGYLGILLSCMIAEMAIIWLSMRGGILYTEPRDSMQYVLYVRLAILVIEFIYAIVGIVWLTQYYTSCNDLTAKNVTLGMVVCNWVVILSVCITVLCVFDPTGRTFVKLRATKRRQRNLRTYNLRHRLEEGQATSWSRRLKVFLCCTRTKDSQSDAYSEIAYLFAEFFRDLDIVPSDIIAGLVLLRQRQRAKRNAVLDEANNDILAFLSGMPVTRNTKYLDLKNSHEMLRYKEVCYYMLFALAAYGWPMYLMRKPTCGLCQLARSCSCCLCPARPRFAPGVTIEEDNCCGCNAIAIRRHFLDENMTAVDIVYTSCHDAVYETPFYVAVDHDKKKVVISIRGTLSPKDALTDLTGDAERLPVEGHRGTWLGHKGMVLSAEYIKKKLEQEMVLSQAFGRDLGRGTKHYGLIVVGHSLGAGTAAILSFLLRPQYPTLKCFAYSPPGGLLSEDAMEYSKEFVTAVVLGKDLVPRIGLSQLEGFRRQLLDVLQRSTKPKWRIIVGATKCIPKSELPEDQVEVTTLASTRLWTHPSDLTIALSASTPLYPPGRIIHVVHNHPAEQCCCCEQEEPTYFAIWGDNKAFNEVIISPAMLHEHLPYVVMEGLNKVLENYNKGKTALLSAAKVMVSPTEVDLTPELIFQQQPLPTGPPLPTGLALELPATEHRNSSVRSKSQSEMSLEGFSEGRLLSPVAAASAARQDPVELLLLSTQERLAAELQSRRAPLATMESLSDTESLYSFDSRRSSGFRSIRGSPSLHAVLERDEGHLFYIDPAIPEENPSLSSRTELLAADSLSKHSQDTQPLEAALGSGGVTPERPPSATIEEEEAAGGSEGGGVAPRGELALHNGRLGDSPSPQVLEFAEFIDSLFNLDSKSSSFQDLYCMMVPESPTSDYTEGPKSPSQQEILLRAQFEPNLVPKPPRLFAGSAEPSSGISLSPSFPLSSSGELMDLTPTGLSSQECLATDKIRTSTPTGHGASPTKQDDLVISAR
Sequence of ABHD6 (Q8R2Y0 whole entry): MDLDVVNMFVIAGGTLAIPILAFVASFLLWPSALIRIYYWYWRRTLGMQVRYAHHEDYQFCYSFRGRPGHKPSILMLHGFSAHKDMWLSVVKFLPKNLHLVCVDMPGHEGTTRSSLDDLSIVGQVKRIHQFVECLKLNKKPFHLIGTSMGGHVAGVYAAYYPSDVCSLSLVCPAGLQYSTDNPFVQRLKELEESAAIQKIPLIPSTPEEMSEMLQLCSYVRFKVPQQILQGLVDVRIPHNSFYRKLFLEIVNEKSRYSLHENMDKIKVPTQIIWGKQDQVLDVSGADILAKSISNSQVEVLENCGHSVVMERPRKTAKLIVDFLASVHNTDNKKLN
Sequence of CES1C (P23953 19-554): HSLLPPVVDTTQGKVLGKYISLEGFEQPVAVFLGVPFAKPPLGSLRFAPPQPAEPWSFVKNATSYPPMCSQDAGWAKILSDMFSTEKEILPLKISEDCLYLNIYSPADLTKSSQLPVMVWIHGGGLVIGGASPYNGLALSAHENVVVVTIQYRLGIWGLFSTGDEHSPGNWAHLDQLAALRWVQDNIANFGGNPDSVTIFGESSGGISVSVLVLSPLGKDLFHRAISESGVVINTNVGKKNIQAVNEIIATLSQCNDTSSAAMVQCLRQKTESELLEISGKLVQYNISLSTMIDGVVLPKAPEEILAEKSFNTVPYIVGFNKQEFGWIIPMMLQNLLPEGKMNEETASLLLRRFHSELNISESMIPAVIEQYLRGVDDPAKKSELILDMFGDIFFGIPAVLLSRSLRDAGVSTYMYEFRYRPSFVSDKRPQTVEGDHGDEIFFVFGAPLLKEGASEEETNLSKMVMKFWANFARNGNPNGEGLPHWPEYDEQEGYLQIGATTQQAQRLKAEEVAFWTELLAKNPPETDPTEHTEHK
Sequence of PLA2G7 (Q60963 22-440): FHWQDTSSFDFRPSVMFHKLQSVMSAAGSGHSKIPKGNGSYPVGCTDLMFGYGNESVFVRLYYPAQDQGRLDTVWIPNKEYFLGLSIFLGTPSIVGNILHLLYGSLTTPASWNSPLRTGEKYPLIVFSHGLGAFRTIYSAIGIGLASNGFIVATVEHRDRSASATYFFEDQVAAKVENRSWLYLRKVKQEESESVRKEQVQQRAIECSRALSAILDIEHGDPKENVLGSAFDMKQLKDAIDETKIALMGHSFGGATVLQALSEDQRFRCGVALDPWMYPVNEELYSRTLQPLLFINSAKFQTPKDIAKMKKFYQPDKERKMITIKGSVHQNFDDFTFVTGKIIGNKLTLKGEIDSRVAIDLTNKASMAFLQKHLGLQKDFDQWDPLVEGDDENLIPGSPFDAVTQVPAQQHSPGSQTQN
Sequence of ABHD2 (Q9QXM0 whole entry): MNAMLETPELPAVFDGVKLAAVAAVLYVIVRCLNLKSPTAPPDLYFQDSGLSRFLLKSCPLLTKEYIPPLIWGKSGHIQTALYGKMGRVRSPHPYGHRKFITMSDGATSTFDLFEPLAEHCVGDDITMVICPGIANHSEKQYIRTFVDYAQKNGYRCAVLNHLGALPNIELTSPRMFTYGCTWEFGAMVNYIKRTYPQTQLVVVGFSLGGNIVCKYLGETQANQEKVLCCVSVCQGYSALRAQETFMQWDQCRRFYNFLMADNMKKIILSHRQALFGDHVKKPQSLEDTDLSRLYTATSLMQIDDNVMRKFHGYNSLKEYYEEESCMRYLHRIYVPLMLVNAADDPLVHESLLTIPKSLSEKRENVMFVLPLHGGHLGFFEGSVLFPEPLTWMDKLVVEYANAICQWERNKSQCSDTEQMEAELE
Sequence of BCHE (Q03311 30-603 limits assumed): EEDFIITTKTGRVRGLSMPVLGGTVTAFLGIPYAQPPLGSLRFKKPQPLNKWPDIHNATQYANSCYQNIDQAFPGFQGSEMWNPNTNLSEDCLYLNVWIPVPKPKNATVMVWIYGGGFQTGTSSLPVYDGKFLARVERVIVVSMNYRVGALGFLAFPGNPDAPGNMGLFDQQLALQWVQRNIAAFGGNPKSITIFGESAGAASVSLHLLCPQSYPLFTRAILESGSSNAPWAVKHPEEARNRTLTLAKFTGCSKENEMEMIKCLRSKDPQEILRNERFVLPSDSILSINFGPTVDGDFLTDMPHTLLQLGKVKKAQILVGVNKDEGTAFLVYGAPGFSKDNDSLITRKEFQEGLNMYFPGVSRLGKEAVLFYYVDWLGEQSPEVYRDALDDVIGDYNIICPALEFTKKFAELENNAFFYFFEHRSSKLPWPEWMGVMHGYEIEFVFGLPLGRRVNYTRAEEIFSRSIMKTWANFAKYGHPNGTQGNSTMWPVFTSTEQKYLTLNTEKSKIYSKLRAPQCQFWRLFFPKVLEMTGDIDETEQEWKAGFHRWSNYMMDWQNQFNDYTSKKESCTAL
Sequence of PAFAH2 (Q8VDG7 whole entry): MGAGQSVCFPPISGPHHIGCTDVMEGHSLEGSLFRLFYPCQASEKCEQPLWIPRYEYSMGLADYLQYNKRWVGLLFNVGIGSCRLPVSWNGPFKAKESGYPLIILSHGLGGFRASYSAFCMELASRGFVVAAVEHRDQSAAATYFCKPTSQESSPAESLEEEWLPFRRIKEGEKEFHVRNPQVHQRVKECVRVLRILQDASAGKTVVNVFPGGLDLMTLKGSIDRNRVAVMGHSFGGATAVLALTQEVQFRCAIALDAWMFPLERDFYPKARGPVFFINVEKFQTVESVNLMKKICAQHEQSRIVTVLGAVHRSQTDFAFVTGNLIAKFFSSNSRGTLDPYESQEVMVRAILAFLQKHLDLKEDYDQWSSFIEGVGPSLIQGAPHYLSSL

SMILES | time after injection at which depletion of brain 2-AG was observed [1] [h] | brain 2-AG levels [1] | brain AA [1] | brain AEA [1] | brain C18:1/C20:4 DAG [1] | brain PGD2 [1] | brain PGE2 [1] | brain SAG [1] | heavy/light ReDiMe ratio, ABHD6 (off-target) (ABHD6) | inhibition of DAGLβ by quantitative MS (DAGLβ [2]) | heavy/light ReDiMe ratio, CES1C (off-target) (CES1C) | inhibition of DAGLα by quantitative MS (DAGLα [3]) | pIC50 [4] | selectivity, detectable serine hydrolase off-targets (serine hydrolases) | LPS-induced elevation in brain 2-AG [8] | LPS-induced elevation in brain PGE2 [8] | LPS-stimulated brain cytokines [8] | LPS-induced anapyrexia [8] | brain 2-AG under basal control conditions [8] | brain AA under basal control conditions [8] | further results
C#CCO[C@@H]1CC[C@H](Cc2ccccc2)N(C(=O)n2ncc(C(O)(c3ccc(F)cc3)c3ccc(F)cc3)n2)C1 [Compound 14, ((2R,5R)-2-Benzyl-5-(prop-2-ynyloxy)piperidin-1-yl)(4-(bis(4-fluorophenyl)(hydroxy)methyl)-2H-1,2,3-triazol-2-yl)methanone] | ≤ 2 | reduced | reductions | reductions | elevations | reductions | reductions | elevations | < 0.5 | strongly | < 0.5 | complete inhibition | 5.96 | selective for DAGLs, with the only detectable serine hydrolase off-targets being ABHD6 and PLA2G7 | suppressed | suppressed | reductions | blunted | severely depleted | severely depleted | heavy/light ReDiMe ratio, LIPE (off-target) (LIPE): < 0.5; heavy/light ReDiMe ratio, BCHE (off-target) (BCHE): < 0.5; labeling of DAGL enzymes in brain proteomes of treated mice (DAGL enzymes): direct, dose-dependent labeling; pIC50 (DAGLβ [5]): 8.32 to 8.64; pIC50 (DAGLα [6]): 8.92 to 9.30; effect on hippocampal DSI ([7]; 10 μM): blocked; brain PGE2 under basal control conditions [8]: severely depleted
CC(C)(C)OC(=O)N1CCN(C(=O)n2cc(-c3ccc(OC(F)(F)F)cc3)nn2)C(Cc2ccccc2)C1 (stereo not shown) [Compound 17, tert-Butyl 3-benzyl-4-(4-(4-(trifluoromethoxy)phenyl)-1H-1,2,3-triazole-1-carbonyl)piperazine-1-carboxylate] | ≤ 2 | reduced | reductions | reductions | elevations | reductions | reductions | elevations | < 0.5 | partially | < 0.5 | complete inhibition | 6.74 | selective for DAGLs, with the only detectable serine hydrolase off-targets being ABHD6 and PLA2G7 | suppressed | suppressed | reductions | blunted | severely depleted | severely depleted | heavy/light ReDiMe ratio, PLA2G7 (off-target) (PLA2G7): < 0.5; heavy/light ReDiMe ratio, ABHD2 (off-target) (ABHD2): < 0.5; heavy/light ReDiMe ratio, PAFAH2 (off-target) (PAFAH2): < 0.5; inhibition of DAGLβ (DAGLβ [9]): inhibited; pIC50 (DAGLβ [5]; mouse brain proteome, probes 1 μM, 30 min, read-out: IC50, DAGLβ labeling by compound 58 and HT-01): 8.32 to 8.64; pIC50 (DAGLα [6]; mouse brain proteome, probes 1 μM, 30 min, read-out: IC50, DAGLα labeling by compound 58 and HT-01): 8.92 to 9.30; effect on hippocampal DSI ([7]; 1 μM): blocked; brain PGE2 under basal control conditions [8]: severely depleted
